Data taken from the RepoRT retention time repository (doi:10.1016/j.chroma.2015.11.014).

Test: RP, Agilent ZORBAX Eclipse Plus C18, 150 × 2.1 mm, 3.5 µm, 40 °C, 0.3 mL/min, estimated dead time 1.1 min; A: water + 0.1% formic acid; B: acetonitrile + 0.1% formic acid; gradient (min/%B) 0/2 1/2 2/20 16.5/98 22/98
Conditions: stereoisomer not certain
`COc1ccc(C(=O)c2ccccc2O)c(O)c1` gave an LC retention time of 11.8 min. `c1ccc(C2CN3CCSC3=N2)cc1` (configuration not stated) gave an LC retention time of 5.02 min. `CCCC[N+](CCCC)(CCCC)CCCC` showed an LC retention time of 8.91 min. In the case of `CC1(C)SC2C(NC(=O)C(N)c3ccc(O)cc3)C(=O)N2C1C(=O)O` (configuration not stated), the LC retention time is reported as 4.71 min. Work on `CCNc1nc(NC(C)C)nc(SC)n1` yielded an LC retention time of 8.65 min. Compound `O=c1[nH]c(=O)c2[nH]c(=O)[nH]c2[nH]1` has an LC retention time of 2.08 min. `Cc1cc(C2CCCCC2)n(O)c(=O)c1` gave an LC retention time of 4.49 min. For `c1ccc([P+](Cc2ccccn2)(c2ccccc2)c2ccccc2)cc1`, the LC retention time was 8.34 min. `O=C(c1ccc(O)cc1O)c1ccc(O)cc1O` gave an LC retention time of 8.37 min. Work on `CC[N+](CC)(CC)Cc1ccccc1` yielded an LC retention time of 5.09 min. Work on `Nc1nc2c(ncn2C2OC(CO)C(O)C2O)c(=O)[nH]1` (configuration not stated) yielded an LC retention time of 3.15 min. For `CCCC(=O)Nc1ccc(OCC(O)CNC(C)C)c(C(C)=O)c1` (configuration not stated), the LC retention time was 5.96 min. For `CCCCCCCCCCCCCC[P+](CCCC)(CCCC)CCCC`, the LC retention time was 14.9 min. `CCOc1nc2cccc(C(=O)O)c2n1Cc1ccc(-c2ccccc2-c2nn[nH]n2)cc1` gave an LC retention time of 10 min. Compound `CC(C)(c1ccc(OP(=O)(Oc2ccccc2)Oc2ccccc2)cc1)c1ccc(OP(=O)(Oc2ccccc2)Oc2ccccc2)cc1` has an LC retention time of 17.7 min. Compound `CNCC(O)c1cccc(O)c1` (configuration not stated) has an LC retention time of 2.73 min. With `CCOC(=O)C(CCc1ccccc1)NC(C)C(=O)N1C(C(=O)O)CC2CCCC21` (configuration not stated) the LC retention time was 7.85 min. With `CCCCCCCC[N+](C)(C)CCCCCCCC` the LC retention time was 11.7 min. With `O=c1[nH]c(=O)c2cn[nH]c2[nH]1` the LC retention time was 2.85 min. Work on `CCCCCCCCCCCCCCCC[N+](C)(C)CC` yielded an LC retention time of 13 min. `COP(=O)(OC)OC` showed an LC retention time of 4.97 min. Compound `CCCSc1ccc2nc(NC(=O)OC)[nH]c2c1` has an LC retention time of 8.55 min. `CCCCCCCCCCCCOS(=O)(=O)O` gave an LC retention time of 14.9 min. In the case of `CC(C)(C)c1cc([N+](=O)[O-])cc([N+](=O)[O-])c1O`, the LC retention time is reported as 13.9 min. Work on `CNC(=O)ON=C(C)C(C)SC` (configuration not stated) yielded an LC retention time of 7.75 min. In the case of `CN1C(C(=O)Nc2ccccn2)=C(O)c2sccc2S1(=O)=O`, the LC retention time is reported as 7.36 min. `COc1ccc(C(CN)C2(O)CCCCC2)cc1` (configuration not stated) showed an LC retention time of 6.32 min. In the case of `O=P(O)(c1ccccc1)c1ccccc1`, the LC retention time is reported as 7.24 min. Compound `c1ccc([P+](c2ccccc2)(c2ccccc2)c2ccccc2)cc1` has an LC retention time of 8.63 min. For `CC(C)(C(=O)O)c1ccc(C(O)CCCN2CCC(C(O)(c3ccccc3)c3ccccc3)CC2)cc1` (configuration not stated), the LC retention time was 8.7 min. Work on `CC(NC(CCc1ccccc1)C(=O)O)C(=O)C1CCCN1C(=O)O` (configuration not stated) yielded an LC retention time of 5.84 min. With `CCCC1OC2CC3C4CCC5=CC(=O)C=CC5(C)C4C(O)CC3(C)C2(C(=O)CO)O1` (configuration not stated) the LC retention time was 11 min. Compound `COc1cc(C(=O)O)cc(OC)c1O` has an LC retention time of 5.7 min. Compound `O=P(Oc1ccccc1)(Oc1ccccc1)Oc1cccc(OP(=O)(Oc2ccccc2)Oc2ccccc2)c1` has an LC retention time of 15.9 min. For `CC[N+](CC)(CC([O-])=Nc1c(C)cccc1C)Cc1ccccc1`, the LC retention time was 7.58 min. Compound `O=C(O)c1cc(N=Nc2ccc(S(=O)(=O)Nc3ccccn3)cc2)ccc1O` has an LC retention time of 9.22 min. For `CC1=CC(=O)NS(=O)(=O)O1`, the LC retention time was 4.12 min. `COCCOC(=O)Nc1ccc(C)c(NC(=O)OCCOC)c1` gave an LC retention time of 8.32 min. For `C=C(c1ccc(C(=O)O)cc1)c1cc2c(cc1C)C(C)(C)CCC2(C)C`, the LC retention time was 17.6 min. `CCCCCCCCCCCCCCCCCC[N+](C)(C)Cc1ccccc1` showed an LC retention time of 14.9 min. `CC(CN1c2ccccc2Sc2ccccc21)N(C)C` (configuration not stated) showed an LC retention time of 8 min. For `CN(C)CC1CCCCC1(O)c1cccc(O)c1` (configuration not stated), the LC retention time was 5.39 min. Compound `CCC(C)(C)C(=O)OC1CC(CO)C=C2C=CC(C)C(CCC3CC(O)CC(=O)O3)C21` (configuration not stated) has an LC retention time of 10.8 min. In the case of `CNc1c(C)n(C)n(-c2ccccc2)c1=O`, the LC retention time is reported as 4.82 min. For `Cc1ccc(-c2nc3ccccc3[nH]2)cc1`, the LC retention time was 6.06 min. Compound `O=C(NCc1ccccc1)NC1CCCCC1` has an LC retention time of 10.3 min. `Cc1cc2nc3[nH]c(=O)[nH]c(=O)c3nc2cc1C` showed an LC retention time of 7.07 min. `O=c1[nH]cnc2c1ncn2C1CC(O)C(CO)O1` (configuration not stated) showed an LC retention time of 4.18 min. In the case of `O=C1CC2(CCCCC2)CN1`, the LC retention time is reported as 7.59 min. Work on `c1ccc2nc3ccccc3cc2c1` yielded an LC retention time of 5.78 min. With `O=C(O)c1ccc(-c2ccccc2-c2nn[nH]n2)cc1` the LC retention time was 8.03 min. `COc1cc(-c2oc3cc(O)cc(O)c3c(=O)c2O)ccc1O` gave an LC retention time of 9.42 min. With `Cc1ccc(C(C)NC(=O)C(NC(=O)OC(C)C)C(C)C)cc1` (configuration not stated) the LC retention time was 11.9 min. In the case of `Cn1cnc2nc[nH]c2c1=N`, the LC retention time is reported as 2.36 min. `Cc1cccc(Nc2ccncc2S(=O)(=O)NC(=O)NC(C)C)c1` showed an LC retention time of 7.63 min. Work on `CNCc1ccc(CSCCNC(=C[N+](=O)[O-])NC)o1` yielded an LC retention time of 4.77 min. For `O=C1c2ccccc2C(=O)C1c1nc2ccccc2cc1O`, the LC retention time was 14.7 min. For `CCOc1ccc(C[P+](c2ccccc2)(c2ccccc2)c2ccccc2)cc1`, the LC retention time was 9.45 min. In the case of `CCCCC(CC)COC(=O)C(C#N)=C(c1ccccc1)c1ccccc1` (configuration not stated), the LC retention time is reported as 17.7 min. Compound `CN1C(C)(C)CC(OC(=O)CCCCCCCCC(=O)OC2CC(C)(C)N(C)C(C)(C)C2)CC1(C)C` has an LC retention time of 6.48 min. Compound `CC12CC3CC(C)(C1)CC(N)(C3)C2` has an LC retention time of 6.65 min. With `CCCCCCCCOc1ccc(C(=O)c2ccccc2)c(O)c1` the LC retention time was 19 min. Work on `NC(=O)N1c2ccccc2C(O)C(O)c2ccccc21` (configuration not stated) yielded an LC retention time of 6.66 min. `COc1cc(Cc2cnc(N)nc2N)cc(O)c1OC` gave an LC retention time of 5.02 min. Work on `NC(=O)N1c2ccccc2C=Cc2ccc(O)cc21` yielded an LC retention time of 7.92 min. Compound `O=c1[nH]c(=S)c2[nH]cnc2[nH]1` has an LC retention time of 4.02 min. With `CCOc1ccc(NC(C)=O)cc1` the LC retention time was 7.62 min. With `Cc1c(N)c(=O)n(-c2ccccc2)n1C` the LC retention time was 4.78 min. With `CC12CCC3C4CCC(=O)C=C4CCC3C1CCC2O` (configuration not stated) the LC retention time was 10.4 min. With `CC(O)C(=O)Nc1ccccc1` (configuration not stated) the LC retention time was 6.61 min. In the case of `COc1ncnc(NS(=O)(=O)c2ccc(N)cc2)c1OC`, the LC retention time is reported as 7.08 min. `O=C(O)c1cc(O)c2c(c1)C(=O)c1cccc(O)c1C2=O` showed an LC retention time of 10.8 min. In the case of `C[N+](C)(C)Cc1ccccc1`, the LC retention time is reported as 4.46 min. `Cc1c(C(C)C)c(=O)n(-c2ccccc2)n1C` showed an LC retention time of 9.54 min. With `O=c1c(O)c(-c2ccc(O)c(O)c2)oc2cc(O)cc(O)c12` the LC retention time was 8.07 min. `COCC(C)N(C(=O)C(=O)O)c1c(C)csc1C` (configuration not stated) showed an LC retention time of 8.21 min. `COc1cc(O)c(C(=O)c2ccccc2)cc1S(=O)(=O)O` gave an LC retention time of 7.48 min. In the case of `CCCCCCCCCCCCCCCC[N+](C)(C)Cc1ccccc1`, the LC retention time is reported as 13.9 min. Compound `CCC1CCCC(OC2CCC(N(C)C)C(C)O2)C(C)C(=O)C2=CC3C(C=CC4CC(OC5OC(C)C(OC)C(OC)C5OC)CC43)C2CC(=O)O1` (configuration not stated) has an LC retention time of 10.4 min. Work on `CC(CC(C)(C)C)CP(=O)(O)CC(C)CC(C)(C)C` (configuration not stated) yielded an LC retention time of 14.4 min. Compound `CN(CC=CC#CC(C)(C)C)Cc1cccc2ccccc12` has an LC retention time of 9.65 min. For `CCCc1nc(C(C)(C)O)c(C(=O)O)n1Cc1ccc(-c2ccccc2-c2nn[nH]n2)cc1`, the LC retention time was 7.36 min. In the case of `C#CC1(O)CCC2C3CCc4cc(OC)ccc4C3CCC21C` (configuration not stated), the LC retention time is reported as 14.5 min. Compound `CCc1cccc(C)c1N(C(=O)CS(=O)(=O)O)C(C)COC` (configuration not stated) has an LC retention time of 8.25 min. In the case of `CCOC(=O)NS(=O)(=O)c1ccc(C)cc1`, the LC retention time is reported as 9.54 min. `COC[P+](c1ccccc1)(c1ccccc1)c1ccccc1` gave an LC retention time of 7.5 min. `CSc1ccc(O)cc1C` gave an LC retention time of 9.8 min. `c1ccc2sc(NC3CCCCC3)nc2c1` showed an LC retention time of 9.08 min. `CN(C)c1ccc(C(c2ccccc2)c2ccc(N(C)C)cc2)cc1` gave an LC retention time of 9.97 min. Compound `Nc1cccc2[nH]c(-c3ccccc3)nc12` has an LC retention time of 5.28 min. `Nc1ncnc2c1ncn2C1CC(O)C(COP(=O)(O)O)O1` (configuration not stated) showed an LC retention time of 2.17 min. For `O=C(c1ccccc1)c1ccc(O)cc1O`, the LC retention time was 11 min. For `COC1C(OC(C)=O)CC(=O)OC(C)CC=CC=CC(O)C(C)CC(CC=O)C1OC1OC(C)C(OC2CC(C)(O)C(OC(=O)CC(C)C)C(C)O2)C(N(C)C)C1O` (configuration not stated), the LC retention time was 8.87 min. For `CCNc1nc(NC(C)(C)C)nc(S(C)=O)n1` (configuration not stated), the LC retention time was 8.82 min. Work on `Cc1cc(NS(=O)(=O)c2ccc(N)cc2)no1` yielded an LC retention time of 7.25 min. With `CC12C=CC(=O)C=C1CCC1C2C(O)CC2(C)C1CCC2(O)C(=O)CO` (configuration not stated) the LC retention time was 8.43 min. `CCN(CC)CCNC(=O)c1cc(S(C)(=O)=O)ccc1OC` gave an LC retention time of 4.86 min. In the case of `CC(=O)Nc1ccc(C(=O)O)cc1`, the LC retention time is reported as 5.59 min. Work on `CCN1CCCC1CNC(=O)c1cc(S(=O)(=O)CC)c(N)cc1O` (configuration not stated) yielded an LC retention time of 5.62 min. `Cc1cc(C(C)(C)C)c(O)c(C)c1CC1=NCCN1` gave an LC retention time of 7.43 min. Compound `O=C(C1CCCCC1)N1CC(=O)N2CCc3ccccc3C2C1` (configuration not stated) has an LC retention time of 10.8 min. Work on `Cc1c(NC=O)c(=O)n(-c2ccccc2)n1C` yielded an LC retention time of 5.62 min. `OCCN(CCO)c1nc(N2CCCCC2)c2nc(N(CCO)CCO)nc(N3CCCCC3)c2n1` showed an LC retention time of 7.67 min. Compound `CNC(=O)Oc1cccc2c1OC(C)(C)C2` has an LC retention time of 9.75 min. `c1ccc([P+](c2ccccc2)(c2ccccc2)C2CC2)cc1` showed an LC retention time of 7.79 min. With `CC(C)CC(CN)CC(=O)O` (configuration not stated) the LC retention time was 5.17 min. With `COC1C=COC2(C)Oc3c(C)c(O)c4c(O)c(c5c(nc6cc(C)ccn65)c4c3C2=O)NC(=O)C(C)=CC=CC(C)C(O)C(C)C(O)C(C)C(OC(C)=O)C1C` (configuration not stated) the LC retention time was 11.8 min. In the case of `CC(C)NCC(O)COc1ccc(CC(=O)O)cc1` (configuration not stated), the LC retention time is reported as 4.89 min. Compound `CC1=CC(C)(C)Nc2ccccc21` has an LC retention time of 12.5 min. For `O=c1c(-c2ccc(O)cc2)coc2cc(O)ccc12`, the LC retention time was 7.74 min. With `Cc1nnc(-c2ccccc2)c(=O)[nH]1` the LC retention time was 6.12 min. For `CCOC(=O)NCCOc1ccc(Oc2ccccc2)cc1`, the LC retention time was 13.1 min.
